We go through nine molecules from patent US9796711B2, “Substituted pyrazolo[3,4-b]pyridin-6-carboxylic acids and method of use” (AbbVie S.àr.l., priority 2015, dated 2017).

The target of assay [1] is T1, ΔF508-CFTR (Homo sapiens, UniProt P13569, DEL508-508).
T1 construct: host or cells: CFBE41o-, doxycycline-inducible
The experiment in a line: CFTR cell surface levels using HRP-tagged ΔF508-CFTR expressing CFBE cells, in the presence of a co-corrector. As to conditions: HRP-tagged ΔF508-CFTR expressing CFBE cells, in the presence of 3 μM co-corrector; for EC50: read-out: EC50. It counts as cell-based. Summed up:
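Cells were seeded with 0.5 μg/mL doxycycline and held 68 h at 37 °C. Test compounds plus 3 μM co-corrector (final 0.1% DMSO) were then added for 20 h at 33 °C. Washed cells received HRP substrate, and luminescence was normalized between DMSO and 3 μM co-corrector controls.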

The target in assay [2] is T1, ΔF508-CFTR. Briefly: CFTR cell surface levels using HRP-tagged ΔF508-CFTR expressing CFBE cells, intrinsic corrector capacity. The assay is classed as cell-based. As to conditions: for EC50: read-out: EC50. Summed up: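 Here the cells express ΔF508-CFTR with horseradish peroxidase inserted in extracellular loop 4, so only rescued channel at the surface gives luminescent signal. Compounds act on their own, 20 h at the reduced temperature of 33 °C; values are percent activity relative to DMSO and a 3 μM corrector.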

[3] abbreviates: HRP-tagged ΔF508-CFTR expressing CFBE cells, intrinsic corrector capacity (no co-corrector), 33° C., 20 hours.
Setting [4] is: HRP-tagged ΔF508-CFTR CFBE41o- cells, compounds alone (intrinsic corrector capacity), 20 hours at 33° C., positive control 3 μM corrector.
Setting [5] is: HRP-tagged ΔF508-CFTR CFBE41o- cells, compounds alone (intrinsic corrector capacity), 20 hours at 33° C.

The structures appear in SMILES notation.

T1 sequence (P13569 with tags, fused parts or gaps DEL508-508): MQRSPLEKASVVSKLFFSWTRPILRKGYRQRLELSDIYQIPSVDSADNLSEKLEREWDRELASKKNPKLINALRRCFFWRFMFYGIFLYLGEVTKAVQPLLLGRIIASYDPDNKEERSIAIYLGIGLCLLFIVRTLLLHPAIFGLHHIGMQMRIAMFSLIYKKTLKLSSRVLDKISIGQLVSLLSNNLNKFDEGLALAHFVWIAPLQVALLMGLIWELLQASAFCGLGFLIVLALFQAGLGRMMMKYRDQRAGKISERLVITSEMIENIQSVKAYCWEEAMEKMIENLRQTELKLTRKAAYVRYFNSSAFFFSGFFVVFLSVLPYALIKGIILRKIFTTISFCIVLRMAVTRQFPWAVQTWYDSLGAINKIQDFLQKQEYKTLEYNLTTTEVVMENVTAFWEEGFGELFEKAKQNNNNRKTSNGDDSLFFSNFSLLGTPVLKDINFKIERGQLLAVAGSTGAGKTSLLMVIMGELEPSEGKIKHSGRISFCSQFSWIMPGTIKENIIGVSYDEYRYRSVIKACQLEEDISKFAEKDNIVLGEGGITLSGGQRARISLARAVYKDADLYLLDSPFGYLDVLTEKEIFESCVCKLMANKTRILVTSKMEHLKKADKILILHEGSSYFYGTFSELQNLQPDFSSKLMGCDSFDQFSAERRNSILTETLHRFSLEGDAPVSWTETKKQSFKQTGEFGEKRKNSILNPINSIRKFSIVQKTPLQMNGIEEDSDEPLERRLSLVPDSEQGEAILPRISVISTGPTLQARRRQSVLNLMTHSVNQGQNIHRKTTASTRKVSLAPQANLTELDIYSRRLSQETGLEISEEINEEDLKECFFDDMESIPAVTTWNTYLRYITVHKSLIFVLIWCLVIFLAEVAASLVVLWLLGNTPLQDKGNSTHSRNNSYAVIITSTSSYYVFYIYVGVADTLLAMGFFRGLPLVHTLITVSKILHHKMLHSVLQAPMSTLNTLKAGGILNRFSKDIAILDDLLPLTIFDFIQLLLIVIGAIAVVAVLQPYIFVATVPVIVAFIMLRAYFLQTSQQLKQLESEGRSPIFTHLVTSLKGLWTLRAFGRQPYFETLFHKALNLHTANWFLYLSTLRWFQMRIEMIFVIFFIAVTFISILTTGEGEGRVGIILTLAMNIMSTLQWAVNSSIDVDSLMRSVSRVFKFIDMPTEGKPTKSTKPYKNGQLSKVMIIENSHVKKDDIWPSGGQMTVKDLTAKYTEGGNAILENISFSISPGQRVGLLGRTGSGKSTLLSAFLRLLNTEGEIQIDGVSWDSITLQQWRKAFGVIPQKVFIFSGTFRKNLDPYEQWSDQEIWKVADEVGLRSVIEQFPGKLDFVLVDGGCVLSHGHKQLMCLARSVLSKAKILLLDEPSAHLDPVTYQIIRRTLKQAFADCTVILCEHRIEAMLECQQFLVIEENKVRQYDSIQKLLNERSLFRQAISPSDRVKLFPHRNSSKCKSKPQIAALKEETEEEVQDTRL

By EC50 is commonly meant the concentration needed to bring the measured effect to its halfway point. Consider `N#CC1CCN(c2ccc(-c3cc(C(=O)O)nc4c3c(OC3COC3)nn4-c3ccccc3)cn2)CC1` [compound 592, 4-[6-(4-cyanopiperidin-1-yl)pyridin-3-yl]-3-[(oxetan-3-yl)oxy]-1-phenyl-1H-pyrazolo[3,4-b]pyridine-6-carboxylic acid], for which, in assay [1], the “% Activation” value is listed as 279% and the EC50 was 584 nM. Moreover, in assay [2] (setting [3]), the “% Activation” value worked out at 116.6% and the EC50 is 1160 nM.
In the same order, the values of `O=C(O)c1cc(N2CCN(CC3CCCO3)CC2)c2c(C3CCC3)nn(-c3ccccc3)c2n1` (stereo not drawn) [compound 681, 3-cyclobutyl-4-{4-[(oxolan-2-yl)methyl]piperazin-1-yl}-1-phenyl-1H-pyrazolo[3,4-b]pyridine-6-carboxylic acid] are 373.05%, 197 nM, 220.95% and 408 nM.
In the case of `Cc1cccc(-n2nc(C(C)C)c3c(N4CCC(F)(F)CC4)cc(C(=O)O)nc32)c1` [compound 210, 4-(4,4-difluoropiperidin-1-yl)-1-(3-methylphenyl)-3-(propan-2-yl)-1H-pyrazolo[3,4-b]pyridine-6-carboxylic acid], the “% Activation” value is 261% in assay [1] and 66.65% in assay [2] (setting [4]). The EC50 was found to be 3340 nM in assay [1] and 1180 nM in assay [2] (setting [5]).
Taken in the same sequence, the figures for `CC(C)c1nn(-c2cccc(N3CCOCC3)c2)c2nc(C(=O)O)cc(-c3ccc(N4CCC(C#N)CC4)nc3)c12` [compound 178] were 591%, 415%, 458 nM and 628 nM.
On to `CC(C)c1nn(-c2cccc(F)c2)c2nc(C(=O)O)cc(-c3ccc(N(C)C4CCOCC4)nc3)c12` [compound 283, 1-(3-fluorophenyl)-4-{6-[methyl(oxan-4-yl)amino]pyridin-3-yl}-3-(propan-2-yl)-1H-pyrazolo[3,4-b]pyridine-6-carboxylic acid], for which the “% Activation” value in assay [1] is reported as 435.2%; in assay [2] (setting [4]), 233.17%. Also, the EC50 in assay [1] was determined as 367 nM; in assay [2] (setting [5]), 649 nM.
In the same order, the values of `Cc1nn(-c2ccccc2)c2nc(C(=O)O)cc(N3CCC(N4CCOCC4)CC3)c12` [compound 324, 3-methyl-4-[4-(morpholin-4-yl)piperidin-1-yl]-1-phenyl-1H-pyrazolo[3,4-b]pyridine-6-carboxylic acid] are 279.1%, 93.32%, 2510 nM and 2510 nM.
In the case of `CC(C)N1CCN(c2ccc(-c3cc(C(=O)O)nc4c3c(C3CCC3)nn4C3CCCCC3)cn2)CC1` [compound 865, 3-cyclobutyl-1-cyclohexyl-4-{6-[4-(propan-2-yl)piperazin-1-yl]pyridin-3-yl}-1H-pyrazolo[3,4-b]pyridine-6-carboxylic acid], in assay [1], the “% Activation” value came out at 306.8% and the concentration for a half-maximal effect (EC50) was 1120 nM. Further, in assay [2] (setting [3]), the “% Activation” value is 146.9% and the EC50 was found to be 439 nM.
Consider `Cc1nn(-c2ccccc2)c2nc(C(=O)O)cc(O[C@@H]3CCN(C)C3)c12` [compound 338, 3-methyl-4-{[(3R)-1-methylpyrrolidin-3-yl]oxy}-1-phenyl-1H-pyrazolo[3,4-b]pyridine-6-carboxylic acid], for which the “% Activation” value was determined as 135.7% in assay [1] and 12.64% in assay [2] (setting [4]). The EC50 in assay [1] and in assay [2] (setting [5]) was 7500 nM each time.
As for `O=C(O)c1cc(N2CC3(CCC3)C2)c2c(C3CCC3)nn(-c3ccccc3)c2n1` [compound 426, 4-(2-azaspiro[3.3]heptan-2-yl)-3-cyclobutyl-1-phenyl-1H-pyrazolo[3,4-b]pyridine-6-carboxylic acid], in assay [1], the “% Activation” value came to 253.5% and the EC50 stood at 897 nM. For the same molecule, in assay [2] (setting [3]), the “% Activation” value came out at 76.06% and the concentration for a half-maximal effect (EC50) amounted to 998 nM.
